The source of these data is patent US11331299B2, “Medicinal use of serrulatane diterpenes” (The University of Sydney, priority 2016, dated 2022).

Assay [1] has as its target T1, USP 21 (h) (Homo sapiens, UniProt Q9UK80).
T1 sequence (Q9UK80 1-565): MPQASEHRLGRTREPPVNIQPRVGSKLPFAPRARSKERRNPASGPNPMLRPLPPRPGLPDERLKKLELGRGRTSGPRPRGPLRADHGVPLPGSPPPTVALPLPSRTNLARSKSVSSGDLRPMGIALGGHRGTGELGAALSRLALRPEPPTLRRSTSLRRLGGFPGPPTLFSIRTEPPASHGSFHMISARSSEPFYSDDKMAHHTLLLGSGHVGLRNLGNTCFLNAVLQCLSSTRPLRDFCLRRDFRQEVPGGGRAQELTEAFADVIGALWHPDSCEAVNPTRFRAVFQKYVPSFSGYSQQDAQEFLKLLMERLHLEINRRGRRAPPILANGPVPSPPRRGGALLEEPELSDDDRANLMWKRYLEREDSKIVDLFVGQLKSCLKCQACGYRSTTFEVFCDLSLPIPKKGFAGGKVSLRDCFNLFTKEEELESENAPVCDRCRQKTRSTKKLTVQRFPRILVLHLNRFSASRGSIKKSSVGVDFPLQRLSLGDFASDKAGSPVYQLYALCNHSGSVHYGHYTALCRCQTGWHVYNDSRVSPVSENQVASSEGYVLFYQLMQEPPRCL
Kind of assay: Epigenetic enzyme assay, Ubiquitin modifying enzymes. The conditions noted are these: Table 10; read-out: Reference IC50. Format: biochemical.

For assay [2], the target named is T2, BAP1 (h) (Homo sapiens, UniProt Q92560).
T2 sequence (Q92560 1-729): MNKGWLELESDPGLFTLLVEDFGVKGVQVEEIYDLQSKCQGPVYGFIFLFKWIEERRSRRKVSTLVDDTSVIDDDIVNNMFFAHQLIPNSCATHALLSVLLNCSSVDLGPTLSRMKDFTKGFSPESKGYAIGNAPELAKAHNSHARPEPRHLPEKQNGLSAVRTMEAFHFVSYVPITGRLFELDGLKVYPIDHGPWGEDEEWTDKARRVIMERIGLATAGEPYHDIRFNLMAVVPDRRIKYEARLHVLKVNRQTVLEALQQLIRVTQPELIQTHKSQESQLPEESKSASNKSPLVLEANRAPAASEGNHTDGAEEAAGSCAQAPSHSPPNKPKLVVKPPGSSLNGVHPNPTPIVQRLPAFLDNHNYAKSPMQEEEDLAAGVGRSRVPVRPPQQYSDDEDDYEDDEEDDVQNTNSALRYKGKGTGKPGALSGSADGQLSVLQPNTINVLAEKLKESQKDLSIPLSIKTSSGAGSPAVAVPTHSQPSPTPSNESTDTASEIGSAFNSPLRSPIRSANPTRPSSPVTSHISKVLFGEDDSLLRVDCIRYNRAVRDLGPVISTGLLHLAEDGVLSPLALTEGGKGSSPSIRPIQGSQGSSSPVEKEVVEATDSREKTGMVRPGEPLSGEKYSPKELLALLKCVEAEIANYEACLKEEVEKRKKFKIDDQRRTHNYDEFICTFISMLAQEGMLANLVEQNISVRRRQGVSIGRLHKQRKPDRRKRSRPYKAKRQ
The assay is described as above. The conditions noted are these: Table 10; read-out: Reference IC50. Format: biochemical.

In assay [3] the target is T3, USP 7 (h) (Homo sapiens, UniProt Q93009). The assay is described as above. Format: biochemical. To be noted: Table 10; read-out: Reference IC50.
The target of assay [4] is T3, USP 7 (h). The conditions noted are these: reference compound; LanthaScreen DUB substrate 10 nM, 60 min/RT; cited from earlier work. A general note: Time-resolved FRET reads energy transfer from a long-lived donor to a nearby acceptor.
The target in assay [5] is T1, USP 21 (h). The conditions noted are these: reference compound; LanthaScreen DUB substrate 10 nM, 15 min/RT; cited from earlier work.
Assay [6] addresses T2, BAP1 (h). The conditions noted are these: reference compound; LanthaScreen DUB substrate 20 nM, 180 min/RT; cited from earlier work.
Another assay deals with USP 10 (h) (Homo sapiens, UniProt Q14694). The conditions noted are these: reference compound; LanthaScreen DUB substrate 10 nM, 60 min/22° C.; cited from earlier work.
In assay [7] the target is T4, USP 14 (h) (Homo sapiens, UniProt P54578). Kind of assay: Epigenetic enzyme assay, Ubiquitin modifying enzymes. Type of assay: biochemical. To be noted: Table 10; read-out: Reference IC50.
Assay [8] has as its target T4, USP 14 (h). To be noted: reference compound; LanthaScreen DUB substrate 10 nM, 240 min/RT; cited from earlier work.

Read-outs that look alike come from different tables or passages of the source.

T4 sequence (P54578 whole entry): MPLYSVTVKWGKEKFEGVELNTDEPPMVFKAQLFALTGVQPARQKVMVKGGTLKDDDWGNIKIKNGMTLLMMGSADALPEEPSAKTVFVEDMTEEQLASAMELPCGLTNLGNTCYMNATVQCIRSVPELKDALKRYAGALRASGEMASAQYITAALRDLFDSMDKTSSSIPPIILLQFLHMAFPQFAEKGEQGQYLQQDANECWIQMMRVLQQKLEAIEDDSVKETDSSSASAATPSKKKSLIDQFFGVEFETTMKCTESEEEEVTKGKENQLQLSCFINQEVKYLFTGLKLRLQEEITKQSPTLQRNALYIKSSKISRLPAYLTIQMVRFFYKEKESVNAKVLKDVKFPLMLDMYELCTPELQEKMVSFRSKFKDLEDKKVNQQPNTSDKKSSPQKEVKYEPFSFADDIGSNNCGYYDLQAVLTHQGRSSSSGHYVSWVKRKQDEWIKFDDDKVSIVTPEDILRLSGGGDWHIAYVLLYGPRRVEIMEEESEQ
T3 sequence (Q93009 whole entry): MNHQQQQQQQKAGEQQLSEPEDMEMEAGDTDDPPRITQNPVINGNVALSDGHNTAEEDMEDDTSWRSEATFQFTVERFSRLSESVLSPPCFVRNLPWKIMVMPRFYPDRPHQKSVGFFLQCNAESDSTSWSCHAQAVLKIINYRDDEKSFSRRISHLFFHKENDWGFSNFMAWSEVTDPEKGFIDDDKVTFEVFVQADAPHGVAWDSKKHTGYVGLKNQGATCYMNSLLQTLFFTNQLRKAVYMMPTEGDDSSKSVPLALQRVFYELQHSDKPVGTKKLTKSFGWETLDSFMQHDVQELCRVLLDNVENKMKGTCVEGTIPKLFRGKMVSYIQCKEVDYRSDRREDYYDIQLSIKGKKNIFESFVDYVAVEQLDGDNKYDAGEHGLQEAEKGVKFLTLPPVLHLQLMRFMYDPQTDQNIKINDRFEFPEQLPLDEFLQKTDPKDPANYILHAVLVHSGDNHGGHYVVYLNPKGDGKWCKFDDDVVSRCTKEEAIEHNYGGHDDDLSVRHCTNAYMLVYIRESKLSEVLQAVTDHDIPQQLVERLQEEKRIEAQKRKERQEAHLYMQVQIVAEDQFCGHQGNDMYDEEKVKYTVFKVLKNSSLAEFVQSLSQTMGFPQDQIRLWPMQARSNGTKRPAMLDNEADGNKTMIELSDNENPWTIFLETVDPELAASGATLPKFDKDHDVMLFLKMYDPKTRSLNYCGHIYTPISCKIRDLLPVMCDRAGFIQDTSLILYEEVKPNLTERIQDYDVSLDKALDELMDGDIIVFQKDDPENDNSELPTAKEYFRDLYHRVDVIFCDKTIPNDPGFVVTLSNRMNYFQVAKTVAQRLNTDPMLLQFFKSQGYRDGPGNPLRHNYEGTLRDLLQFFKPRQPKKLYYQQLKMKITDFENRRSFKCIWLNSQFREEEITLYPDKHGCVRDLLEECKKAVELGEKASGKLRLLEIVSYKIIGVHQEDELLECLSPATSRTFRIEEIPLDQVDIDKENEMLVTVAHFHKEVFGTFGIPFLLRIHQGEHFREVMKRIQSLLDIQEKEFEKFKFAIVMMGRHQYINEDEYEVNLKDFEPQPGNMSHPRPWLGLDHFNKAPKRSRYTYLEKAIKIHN
Chain of USP 10 (h) (Q14694 whole entry): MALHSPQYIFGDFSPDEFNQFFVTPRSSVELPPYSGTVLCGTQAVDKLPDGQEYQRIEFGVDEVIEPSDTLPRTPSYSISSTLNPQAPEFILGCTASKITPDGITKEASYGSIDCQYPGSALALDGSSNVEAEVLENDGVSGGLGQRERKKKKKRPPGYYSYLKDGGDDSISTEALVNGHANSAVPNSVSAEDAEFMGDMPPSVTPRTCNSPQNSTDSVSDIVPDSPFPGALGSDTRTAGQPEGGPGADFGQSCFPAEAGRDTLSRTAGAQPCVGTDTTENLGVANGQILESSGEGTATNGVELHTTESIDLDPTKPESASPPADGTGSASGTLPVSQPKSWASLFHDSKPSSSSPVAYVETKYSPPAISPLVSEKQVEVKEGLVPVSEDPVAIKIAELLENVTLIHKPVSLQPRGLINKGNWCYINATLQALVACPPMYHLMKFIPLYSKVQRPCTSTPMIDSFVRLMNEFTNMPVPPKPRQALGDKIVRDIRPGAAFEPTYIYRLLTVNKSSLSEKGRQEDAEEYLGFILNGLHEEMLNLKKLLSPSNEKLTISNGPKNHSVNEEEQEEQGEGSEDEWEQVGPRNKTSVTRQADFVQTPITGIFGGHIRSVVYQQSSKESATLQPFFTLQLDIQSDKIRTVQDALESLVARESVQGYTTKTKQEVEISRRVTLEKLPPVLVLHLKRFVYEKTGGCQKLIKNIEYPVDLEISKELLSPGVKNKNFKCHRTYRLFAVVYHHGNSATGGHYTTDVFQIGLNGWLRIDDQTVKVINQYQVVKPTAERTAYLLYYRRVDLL

Consider Ubiquitin Aldehyde, for which the 50% inhibitory concentration (IC50) (as a rule, the concentration at which inhibition is half-maximal) was 170 nM on USP 21 (h) [1]; 230 nM on BAP1 (h) [2]; 110 nM on USP 7 (h) [3]; 110 nM at USP 7 (h) [4]; 170 nM at USP 21 (h) [5]; 230 nM on BAP1 (h) [6]. The IC50 on USP 10 (h) was 230 nM; on USP 14 (h) [7] it was 4 nM; on USP 14 (h) [8], 4 nM.
